Bounds are passed on as bounds.

Test in all cases: actin-activated ATPase, PK/LDH-coupled NADH absorbance
One assay has as its target T1, PfMyoA (Plasmodium falciparum, UniProt Q8IDR3).
T1 sequence (Q8IDR3 1-818): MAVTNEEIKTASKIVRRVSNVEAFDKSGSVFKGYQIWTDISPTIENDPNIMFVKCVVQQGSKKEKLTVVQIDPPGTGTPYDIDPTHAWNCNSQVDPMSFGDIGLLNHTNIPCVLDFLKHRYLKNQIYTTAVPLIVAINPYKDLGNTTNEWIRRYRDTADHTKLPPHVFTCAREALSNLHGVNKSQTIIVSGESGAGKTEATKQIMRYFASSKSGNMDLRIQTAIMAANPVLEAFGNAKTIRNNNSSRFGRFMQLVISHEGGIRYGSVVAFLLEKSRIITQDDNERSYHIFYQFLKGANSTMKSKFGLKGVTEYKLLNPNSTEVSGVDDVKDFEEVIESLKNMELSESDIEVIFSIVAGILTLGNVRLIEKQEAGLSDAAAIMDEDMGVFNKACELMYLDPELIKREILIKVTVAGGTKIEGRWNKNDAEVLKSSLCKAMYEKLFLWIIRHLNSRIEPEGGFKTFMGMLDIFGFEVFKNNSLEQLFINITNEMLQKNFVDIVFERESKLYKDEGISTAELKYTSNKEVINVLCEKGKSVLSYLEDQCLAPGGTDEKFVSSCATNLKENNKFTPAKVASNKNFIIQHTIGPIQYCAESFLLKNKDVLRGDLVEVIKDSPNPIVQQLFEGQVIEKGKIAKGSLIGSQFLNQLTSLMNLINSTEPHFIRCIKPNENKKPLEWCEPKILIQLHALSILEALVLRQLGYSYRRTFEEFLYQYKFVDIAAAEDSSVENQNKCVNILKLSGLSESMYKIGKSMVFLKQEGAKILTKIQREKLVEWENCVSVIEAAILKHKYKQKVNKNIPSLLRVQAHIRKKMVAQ
T1 sequence (Q8IJM4 1-134 partner): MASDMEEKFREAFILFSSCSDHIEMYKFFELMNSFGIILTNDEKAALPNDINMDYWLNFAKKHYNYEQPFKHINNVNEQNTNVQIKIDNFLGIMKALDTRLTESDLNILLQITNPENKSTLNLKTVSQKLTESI
T1 sequence (Q8I4W8 1-204 partner): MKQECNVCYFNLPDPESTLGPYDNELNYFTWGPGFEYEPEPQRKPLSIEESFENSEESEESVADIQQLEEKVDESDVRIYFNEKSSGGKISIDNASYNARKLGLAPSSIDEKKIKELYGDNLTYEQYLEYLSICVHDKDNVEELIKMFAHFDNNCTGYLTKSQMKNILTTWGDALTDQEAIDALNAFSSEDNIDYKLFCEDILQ
In kind it is biochemical. The following applies: 2 mM ATP, bovine cardiac actin, 3 mM MgCl2, 5 mM KCl, pH 7.4, 2% DMSO; n = 5.

Assay [1] concerns the target chicken smooth muscle myosin (Gallus gallus, UniProt P10587). It is filed as biochemical. The following applies: 2 mM ATP, 3 mM MgCl2, 5 mM KCl, pH 7.4, 2% DMSO, 300 nM myosin, n = 2.
In a further assay the target is bovine cardiac myosin (Bos taurus, UniProt Q9BE39). In kind it is biochemical. The conditions noted are these: 2 mM ATP, 3 mM MgCl2, 5 mM KCl, pH 7.4, 2% DMSO, 200 nM myosin, n = 3.
Sequence of bovine cardiac myosin (Q9BE39 whole entry): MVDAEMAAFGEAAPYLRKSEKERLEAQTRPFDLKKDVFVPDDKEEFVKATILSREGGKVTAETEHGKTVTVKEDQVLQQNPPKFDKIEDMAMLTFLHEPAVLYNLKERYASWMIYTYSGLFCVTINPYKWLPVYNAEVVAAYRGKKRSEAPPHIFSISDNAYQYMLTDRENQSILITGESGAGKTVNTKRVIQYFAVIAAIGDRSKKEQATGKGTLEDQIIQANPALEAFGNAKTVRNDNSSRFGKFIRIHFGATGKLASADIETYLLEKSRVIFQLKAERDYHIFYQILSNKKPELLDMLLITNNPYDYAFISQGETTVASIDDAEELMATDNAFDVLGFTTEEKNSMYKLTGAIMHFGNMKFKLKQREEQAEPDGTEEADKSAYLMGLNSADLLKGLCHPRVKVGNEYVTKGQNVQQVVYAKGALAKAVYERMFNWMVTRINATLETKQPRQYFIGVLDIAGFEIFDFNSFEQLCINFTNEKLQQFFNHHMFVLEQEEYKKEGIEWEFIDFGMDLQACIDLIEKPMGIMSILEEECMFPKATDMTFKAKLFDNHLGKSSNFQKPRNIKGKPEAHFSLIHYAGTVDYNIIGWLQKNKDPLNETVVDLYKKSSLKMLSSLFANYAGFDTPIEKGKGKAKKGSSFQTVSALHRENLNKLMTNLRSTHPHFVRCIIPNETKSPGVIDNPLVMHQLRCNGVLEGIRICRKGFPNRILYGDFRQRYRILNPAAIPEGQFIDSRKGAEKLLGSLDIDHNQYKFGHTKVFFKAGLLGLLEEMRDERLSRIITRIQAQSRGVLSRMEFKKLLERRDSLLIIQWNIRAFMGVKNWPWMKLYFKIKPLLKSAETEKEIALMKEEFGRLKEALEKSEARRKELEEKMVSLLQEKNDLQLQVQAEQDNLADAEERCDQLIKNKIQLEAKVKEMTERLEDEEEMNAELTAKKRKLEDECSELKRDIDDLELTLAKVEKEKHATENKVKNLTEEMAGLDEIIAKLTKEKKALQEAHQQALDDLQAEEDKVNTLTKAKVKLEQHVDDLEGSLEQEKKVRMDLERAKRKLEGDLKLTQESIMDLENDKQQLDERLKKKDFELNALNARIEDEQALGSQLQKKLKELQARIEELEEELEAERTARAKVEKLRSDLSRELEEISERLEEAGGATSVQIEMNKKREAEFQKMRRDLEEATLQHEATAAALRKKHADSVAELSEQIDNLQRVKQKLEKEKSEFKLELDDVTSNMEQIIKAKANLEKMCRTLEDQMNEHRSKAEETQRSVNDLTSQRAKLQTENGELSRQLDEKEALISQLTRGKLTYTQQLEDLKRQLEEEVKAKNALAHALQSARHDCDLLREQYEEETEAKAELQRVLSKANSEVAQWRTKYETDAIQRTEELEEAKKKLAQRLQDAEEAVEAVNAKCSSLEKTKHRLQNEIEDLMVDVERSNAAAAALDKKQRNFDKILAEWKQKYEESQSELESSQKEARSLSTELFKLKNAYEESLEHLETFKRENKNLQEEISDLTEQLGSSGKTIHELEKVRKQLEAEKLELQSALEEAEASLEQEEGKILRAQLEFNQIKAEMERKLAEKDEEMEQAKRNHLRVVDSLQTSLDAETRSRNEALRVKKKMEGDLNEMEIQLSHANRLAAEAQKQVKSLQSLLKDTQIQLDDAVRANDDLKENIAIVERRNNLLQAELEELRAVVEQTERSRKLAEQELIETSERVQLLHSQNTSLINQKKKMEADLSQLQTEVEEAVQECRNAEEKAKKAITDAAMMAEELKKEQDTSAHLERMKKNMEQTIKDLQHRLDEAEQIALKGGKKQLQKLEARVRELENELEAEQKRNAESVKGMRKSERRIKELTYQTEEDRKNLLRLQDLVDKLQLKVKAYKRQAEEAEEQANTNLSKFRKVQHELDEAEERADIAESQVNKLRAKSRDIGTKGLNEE
Sequence of bovine cardiac myosin (P85100 2-199 partner): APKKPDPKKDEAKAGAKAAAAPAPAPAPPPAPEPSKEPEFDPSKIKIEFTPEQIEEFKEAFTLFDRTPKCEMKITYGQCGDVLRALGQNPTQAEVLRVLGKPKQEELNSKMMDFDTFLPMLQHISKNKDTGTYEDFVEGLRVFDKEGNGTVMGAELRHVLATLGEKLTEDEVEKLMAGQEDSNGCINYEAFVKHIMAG
Sequence of bovine cardiac myosin (Q3SZE5 2-166 partner): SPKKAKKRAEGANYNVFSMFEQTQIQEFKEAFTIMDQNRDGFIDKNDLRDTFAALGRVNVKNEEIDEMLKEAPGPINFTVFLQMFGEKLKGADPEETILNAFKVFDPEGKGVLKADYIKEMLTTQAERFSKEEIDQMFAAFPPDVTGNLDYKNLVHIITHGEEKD
Another assay has as its target rabbit skeletal myosin. It is filed as biochemical, Oryctolagus cuniculus. The conditions noted are these: 2 mM ATP, 3 mM MgCl2, 5 mM KCl, pH 7.4, 2% DMSO, 100 nM myosin, n = 6.

Sequence of chicken smooth muscle myosin (P10587 2-1979): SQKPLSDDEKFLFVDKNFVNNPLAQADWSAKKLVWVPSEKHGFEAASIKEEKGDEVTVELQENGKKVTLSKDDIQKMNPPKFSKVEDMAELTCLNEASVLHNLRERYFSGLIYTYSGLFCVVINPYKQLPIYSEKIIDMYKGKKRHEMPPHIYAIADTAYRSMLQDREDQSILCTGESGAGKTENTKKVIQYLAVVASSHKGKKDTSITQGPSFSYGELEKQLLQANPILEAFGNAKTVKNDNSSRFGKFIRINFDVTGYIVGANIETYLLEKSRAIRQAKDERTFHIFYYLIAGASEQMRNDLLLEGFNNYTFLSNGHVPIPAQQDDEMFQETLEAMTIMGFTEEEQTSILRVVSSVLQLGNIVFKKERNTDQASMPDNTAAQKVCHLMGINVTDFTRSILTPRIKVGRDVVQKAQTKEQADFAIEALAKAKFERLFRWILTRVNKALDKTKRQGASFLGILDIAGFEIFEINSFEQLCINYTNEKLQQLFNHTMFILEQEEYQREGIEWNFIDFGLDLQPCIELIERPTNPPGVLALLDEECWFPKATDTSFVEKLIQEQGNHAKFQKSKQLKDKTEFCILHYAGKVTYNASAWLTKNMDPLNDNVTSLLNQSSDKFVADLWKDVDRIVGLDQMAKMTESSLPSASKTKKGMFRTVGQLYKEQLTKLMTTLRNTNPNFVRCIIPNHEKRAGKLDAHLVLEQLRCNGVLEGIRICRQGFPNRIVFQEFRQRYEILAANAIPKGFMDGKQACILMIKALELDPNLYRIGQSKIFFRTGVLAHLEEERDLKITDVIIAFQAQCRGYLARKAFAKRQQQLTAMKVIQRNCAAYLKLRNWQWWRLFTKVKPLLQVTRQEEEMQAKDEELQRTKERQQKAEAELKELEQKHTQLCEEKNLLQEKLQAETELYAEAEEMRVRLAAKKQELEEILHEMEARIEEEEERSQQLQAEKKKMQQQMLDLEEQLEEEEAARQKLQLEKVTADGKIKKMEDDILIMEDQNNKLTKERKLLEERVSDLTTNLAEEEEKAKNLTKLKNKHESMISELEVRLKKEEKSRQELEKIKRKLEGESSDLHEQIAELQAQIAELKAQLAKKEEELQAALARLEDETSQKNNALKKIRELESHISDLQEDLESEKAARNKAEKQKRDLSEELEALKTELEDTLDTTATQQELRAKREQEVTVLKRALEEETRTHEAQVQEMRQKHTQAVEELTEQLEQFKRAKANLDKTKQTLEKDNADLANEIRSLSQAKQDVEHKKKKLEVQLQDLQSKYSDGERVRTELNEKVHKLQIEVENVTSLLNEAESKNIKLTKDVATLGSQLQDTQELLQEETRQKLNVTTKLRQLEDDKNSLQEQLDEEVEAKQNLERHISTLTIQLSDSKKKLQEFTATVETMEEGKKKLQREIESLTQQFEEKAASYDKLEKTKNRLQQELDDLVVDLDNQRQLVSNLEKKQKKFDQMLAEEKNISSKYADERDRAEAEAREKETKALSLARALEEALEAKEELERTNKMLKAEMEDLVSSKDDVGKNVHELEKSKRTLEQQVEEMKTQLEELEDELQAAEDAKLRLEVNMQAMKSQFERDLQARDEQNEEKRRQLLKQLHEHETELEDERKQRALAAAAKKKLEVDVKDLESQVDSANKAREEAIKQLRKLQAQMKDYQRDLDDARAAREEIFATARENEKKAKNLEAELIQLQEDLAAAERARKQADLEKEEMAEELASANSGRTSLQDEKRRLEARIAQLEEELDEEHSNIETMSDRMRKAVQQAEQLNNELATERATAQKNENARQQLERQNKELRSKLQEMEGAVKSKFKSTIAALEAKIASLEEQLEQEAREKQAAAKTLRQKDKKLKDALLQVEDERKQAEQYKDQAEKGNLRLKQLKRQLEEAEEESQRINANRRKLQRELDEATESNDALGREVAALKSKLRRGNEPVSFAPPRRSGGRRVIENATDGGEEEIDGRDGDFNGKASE
Sequence of chicken smooth muscle myosin (P02607 2-151 partner): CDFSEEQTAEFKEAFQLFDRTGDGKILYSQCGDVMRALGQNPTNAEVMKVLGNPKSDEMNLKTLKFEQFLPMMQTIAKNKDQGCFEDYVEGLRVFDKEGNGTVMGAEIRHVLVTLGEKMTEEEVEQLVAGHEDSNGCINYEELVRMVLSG
Sequence of chicken smooth muscle myosin (P02612 2-172 partner): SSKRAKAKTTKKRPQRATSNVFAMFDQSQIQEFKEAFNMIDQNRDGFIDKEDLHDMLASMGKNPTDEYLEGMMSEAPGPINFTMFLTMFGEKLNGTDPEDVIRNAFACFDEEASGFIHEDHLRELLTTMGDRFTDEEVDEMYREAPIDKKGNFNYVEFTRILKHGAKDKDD

With `COc1ccc(C2(NCc3c[nH]nc3-c3cccs3)CC2)cc1` [KNX-002], inhibition against PfMyoA was half-maximal at 0.4 ± 0.1 µM (IC50).

On to KNX-115, for which the IC50 is over 50 µM in assay [1], 10 ± 6.4 µM at bovine cardiac myosin and 1 ± 0.4 µM against rabbit skeletal myosin.

One may read the IC50 as the concentration that inhibits the measured activity by half. Lower therefore signals greater potency.

For the origin of these results see doi:10.1101/2022.09.09.507317v1 (biorxiv, 2022).
